Assay results as given in patent publication US20210269451A1, “PYRIDINYL HETEROCYCLYL COMPOUNDS FOR THE TREATMENT OF AUTOIMMUNE DISEASE” (Hoffmann-La Roche Inc., priority 2018, published 2021).

Biological target: T1, human TLR7 (Homo sapiens, UniProt Q9NYK1)
T1 construct: host or cells: HEK293-Blue-hTLR-7 (HEK293)
T1 sequence (Q9NYK1 27-1049): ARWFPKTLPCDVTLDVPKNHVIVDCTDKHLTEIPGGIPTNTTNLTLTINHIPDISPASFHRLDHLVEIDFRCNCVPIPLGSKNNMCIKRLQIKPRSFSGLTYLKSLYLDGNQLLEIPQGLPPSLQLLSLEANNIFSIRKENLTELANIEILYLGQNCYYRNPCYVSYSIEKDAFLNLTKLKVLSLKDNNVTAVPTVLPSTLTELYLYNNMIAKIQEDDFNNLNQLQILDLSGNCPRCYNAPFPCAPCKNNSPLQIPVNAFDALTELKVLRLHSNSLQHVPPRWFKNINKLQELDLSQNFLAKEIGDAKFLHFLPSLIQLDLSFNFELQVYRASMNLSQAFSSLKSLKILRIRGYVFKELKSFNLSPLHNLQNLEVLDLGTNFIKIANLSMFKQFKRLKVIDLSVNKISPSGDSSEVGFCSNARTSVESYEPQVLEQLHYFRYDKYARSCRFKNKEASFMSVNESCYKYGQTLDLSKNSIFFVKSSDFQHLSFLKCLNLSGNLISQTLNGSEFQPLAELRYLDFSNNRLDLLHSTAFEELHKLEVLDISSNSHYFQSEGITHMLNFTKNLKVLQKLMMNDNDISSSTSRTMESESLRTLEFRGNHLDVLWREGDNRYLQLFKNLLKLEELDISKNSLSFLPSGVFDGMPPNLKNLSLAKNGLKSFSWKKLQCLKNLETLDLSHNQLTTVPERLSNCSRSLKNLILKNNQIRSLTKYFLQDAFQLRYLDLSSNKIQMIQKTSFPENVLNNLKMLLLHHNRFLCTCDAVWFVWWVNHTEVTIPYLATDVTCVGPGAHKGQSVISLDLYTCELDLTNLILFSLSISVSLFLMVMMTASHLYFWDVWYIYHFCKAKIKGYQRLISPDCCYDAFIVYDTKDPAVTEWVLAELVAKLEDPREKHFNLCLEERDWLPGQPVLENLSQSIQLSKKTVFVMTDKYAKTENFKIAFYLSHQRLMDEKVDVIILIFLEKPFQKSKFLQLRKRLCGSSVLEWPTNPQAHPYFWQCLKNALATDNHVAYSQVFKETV
Assay: HEK293-Blue-hTLR-7 cells assay
Format: cell-based
Conditions: HEK293-Blue-hTLR7 cells, R848 stimulation, 20 hrs, SEAP reporter; read-out: HEK/hTLR7 IC50
Protocol: The following tests were carried out in order to determine the activity of the compounds of formula (I) and (Ia) in HEK293-Blue-hTLR-7/8/9 cells assay.
HEK293-Blue-hTLR-7 cells assay:
A stable HEK293-Blue-hTLR-7 cell line was purchased from InvivoGen (Cat. #: hkb-htlr7, San Diego, Calif., USA). These cells were originally designed for studying the stimulation of human TLR7 by monitoring the activation of NE-κB. A SEAP (secreted embryonic alkaline phosphatase) reporter gene was placed under the control of the IFN-β minimal promoter fused to five NE-κB and AP-1-binding sites. The SEAP was induced by activating NE-κB and AP-1 via stimulating HEK-Blue hTLR7 cells with TLR7 ligands. Therefore the reporter expression was declined by TLR7 antagonist under the stimulation of a ligand, such as R848 (Resiquimod), for incubation of 20 hrs. The cell culture supernatant SEAP reporter activity was determined using QUANTI-Blue™ kit (Cat. #: rep-qbl, Invivogen, San Diego, Ca, USA) at a wavelength of 640 nm, a detection medium that turns purple or blue in the presence of alkaline phosphatase.
HEK293-Blue-hTLR7 cells were incubated at a density of 250,000-450,000 cells/mL in a volume of 170 μL in a 96-well plate in Dulbecco's Modified Eagle's medium (DMEM) containing 4.5 g/L glucose, 50 U/mL penicillin, […], […], 2 mM L-glutamine, 10% (v/v) heat-inactivated fetal bovine serum with addition of 20 μL test compound in a serial dilution in the presence of final DMSO at 1% and 10 μL of 20 uM R848 in above DMEM, perform incubation under 37° C. in a CO2 incubator for 20 hrs. Then 20 μL of the supernatant from each well was incubated with 180 μL Quanti-blue substrate solution at 37° C. for 2 hrs and the absorbance was read at 620˜655 nm using a spectrophotometer. The signalling pathway that TLR7 activation leads to downstream NE-κB activation has been widely accepted, and therefore similar reporter assay was modified for evaluating TLR7 antagonist.

SMILES	IC50 [µM]
Cc1cc(N2CCC3(CN(C[C@H]4CN(c5ccc(C#N)c6ncccc56)C[C@@H](C)O4)C3)C2)cc(C)n1 [Example 9]	0.016
Cc1cc(N2CC[C@@H](NC[C@H]3CN(c4ccc(C#N)c5ncccc45)C[C@@H](C)O3)C2)cc(CO)n1 [Example 28]	0.122
Cc1cc(N2CC3(CN(C[C@H]4CN(c5ccc(C#N)c6ncccc56)C[C@@H](C)O4)C3)C2)cc(C(C)O)n1 (stereo partly drawn) [Example 44, 5-[(2S,6R)-2-[[2-[2-(1-hydroxyethyl)-6-methyl-4-pyridyl]-2,6-diazaspiro[3.3]heptan-6-yl]methyl]-6-methyl-morpholin-4-yl]quinoline-8-carbonitrile]	0.02
Cc1cc(N2CCC(NC[C@H]3CN(c4ccc(C#N)c5ncccc45)C[C@@H](C)O3)CC2)cc(CO)n1 [Example 23]	0.229
C[C@@H]1CN(c2ccc(C#N)c3ncccc23)C[C@H](CN2CCN(c3cc(N)nc(CO)c3)CC2)O1 [Example 45, 5-[(2S,6R)-2-[[4-[2-amino-6-(hydroxymethyl)-4-pyridyl]piperazin-1-yl]methyl]-6-methyl-morpholin-4-yl]quinoline-8-carbonitrile]	0.039
Cc1cc(N2CC(NC[C@H]3CN(c4ccc(C#N)c5ncccc45)C[C@@H](C)O3)CC(F)(F)C2)cc(CO)n1 (some centres unmarked) [Example 36]	0.017
Cc1cc(N2C[C@H]3CN(C[C@H]4CN(c5ccc(C#N)c6ncccc56)C[C@@H](C)O4)C[C@H]3C2)cc(CO)n1 [Example 10]	0.057
Cc1cc(N2CCC[C@@H](NC[C@H]3CN(c4ccc(C#N)c5ncccc45)C[C@@H](C)O3)C2)cc(CO)n1 [Example 24]	0.026
C[C@@H]1CN(c2ccc(C#N)c3ncccc23)C[C@H](CN[C@@H]2CCCN(c3ccnc(N)c3)C2)O1 [Example 21, 5-[(2S,6R)-2-[[[(3R)-1-(2-amino-4-pyridyl)-3-piperidyl]amino]methyl]-6-methyl-morpholin-4-yl]quinoline-8-carbonitrile]	0.062
Cc1cc(N2CCC[C@H](N(C)C[C@H]3CN(c4ccc(C#N)c5ncccc45)C[C@@H](C)O3)C2)cc(CO)n1 [Example 38]	0.035
Cc1cc(N2CCC[C@@H](N(C)C[C@H]3CN(c4ccc(C#N)c5ncccc45)C[C@@H](C)O3)C2)cc(CO)n1 [Example 35]	0.017
Cc1cc(N2CCC[C@H](NC[C@H]3CN(c4ccc(C#N)c5ncccc45)C[C@@H](C)O3)C2)cc(CO)n1 [Example 25]	0.034
C[C@@H]1CN(c2ccc(C#N)c3ncccc23)C[C@H](CN[C@H]2CCCN(c3ccnc(N)c3)C2)O1 [Example 22]	0.037
Cc1cc(N2CCC23CN(C[C@H]2CN(c4ccc(C#N)c5ncccc45)C[C@@H](C)O2)C3)cc(CO)n1 [Example 12]	0.013
Cc1cc(N2CC[C@H](NC[C@H]3CN(c4ccc(C#N)c5ncccc45)C[C@@H](C)O3)C2)cc(CO)n1 [Example 29]	0.156

Now from value to compound:

IC50 [µM]	SMILES
0.007	Cc1cc(N2CCC23CN(C[C@H]2CN(c4ccc(C#N)c5ncccc45)C[C@@H](C)O2)C3)ccn1 [Example 15]
0.01	Cc1cc(N2CCN(C[C@H]3CN(c4ccc(C#N)c5ncccc45)C[C@@H](C)O3)CC2)cc(CO)n1 [Example 50]
0.012	Cc1cc(N2CC[C@H](F)[C@H](NC[C@H]3CN(c4ccc(C#N)c5ncccc45)C[C@@H](C)O3)C2)cc(CO)n1 [Example 33]
0.007	Cc1cc(C2CCN(C[C@H]3CN(c4ccc(C#N)c5ncccc45)C[C@@H](C)O3)CC2)cc(N)n1 [Example 43, 5-[(2S,6R)-2-[[4-(2-amino-6-methyl-4-pyridyl)-1-piperidyl]methyl]-6-methyl-morpholin-4-yl]quinoline-8-carbonitrile]
< 0.003	Cc1cc(N2CCOC3(CN(C[C@H]4CN(c5ccc(C#N)c6ncccc56)C[C@@H](C)O4)C3)C2)ccn1 [Example 16]
0.008	Cc1cc(N(C)C2CN(C[C@H]3CN(c4ccc(C#N)c5ncccc45)C[C@@H](C)O3)C2)cc(C)n1 [Example 11]
0.01	Cc1cc(N2CCN(C[C@H]3CN(c4ccc(C#N)c5ncccc45)C[C@@H](C)O3)[C@H](C)C2)cc(CO)n1 [Example 4B]
< 0.003	C[C@@H]1CN(c2ccc(C#N)c3ncccc23)C[C@H](CN2CC3(C2)CN(c2ccnc(C4CC4)c2)CCO3)O1 [Example 3, 5-[(2S,6R)-2-[[8-(2-cyclopropyl-4-pyridyl)-5-oxa-2,8-diazaspiro[3.5]nonan-2-yl]methyl]-6-methyl-morpholin-4-yl]quinoline-8-carbonitrile]
< 0.003	C[C@@H]1CN(c2ccc(C#N)c3ncccc23)C[C@H](CN2CC3(C2)CN(c2ccnc(CO)c2)CCO3)O1 [Example 51]
< 0.003	Cc1cc(N2CCOC3CN(CC4CN(c5ccc(C#N)c6ncccc56)CC(C)O4)CC32)cc(C)n1 (single isomer, unassigned) [Example 17A]
0.007	Cc1cc(N2CCC23CN(C[C@H]2CN(c4ccc(C#N)c5ncccc45)C[C@@H](C)O2)C3)cc(C)n1 [Example 8]
0.011	Cc1cc(N2CCOC3CN(CC4CN(c5ccc(C#N)c6ncccc56)CC(C)O4)CC32)cc(C)n1 (single isomer, unassigned) [Example 17B]
0.013	CNc1cc(N2CCN(C[C@H]3CN(c4ccc(C#N)c5ncccc45)C[C@@H](C)O3)CC2)cc(C)n1 [Example 42, 5-[(2R,6S)-2-methyl-6-[[4-[2-methyl-6-(methylamino)-4-pyridyl]piperazin-1-yl]methyl]morpholin-4-yl]quinoline-8-carbonitrile]
< 0.003	Cc1cc(N2CCOC3(CN(C[C@H]4CN(c5ccc(C#N)c6ncccc56)C[C@@H](C)O4)C3)C2)cc(C)n1 [Example 14]
0.006	C[C@@H]1CN(c2ccc(C#N)c3ncccc23)C[C@H](CN2CCN(c3ccnc(N)c3)CC2)O1 [Example 19, 5-[(2S,6R)-2-[[4-(2-amino-4-pyridyl)piperazin-1-yl]methyl]-6-methyl-morpholin-4-yl]quinoline-8-carbonitrile]
0.012	Cc1cc(N2CC[C@@H](F)[C@H](NC[C@H]3CN(c4ccc(C#N)c5ncccc45)C[C@@H](C)O3)C2)cc(CO)n1 [Example 34]

System: not listed separately
Assay: Human microsome stability assay
Format: in vitro ADME
Conditions: 1 μM test compound, 0.5 mg/mL liver microsomal protein, 37° C.
Protocol: Human microsome stability assay
The human microsomal stability assay is used for early assessment of metabolic stability of a test compound in human liver microsomes.
Human liver microsomes (Cat.NO.: 452117, Corning, USA;Cat.NO.:H2610, Xenotech, USA) were preincubated with test compound for 10 minutes at 37° C. in 100 mM potassium phosphate buffer, pH 7.4. The reactions were initiated by adding NADPH regenerating system. The final incubation mixtures contained 1 μM test compound, 0.5 mg/mL liver microsomal protein, 1 mM MgCl2, 1 mM NADP, 1 unit/mL isocitric dehydrogenase and 6 mM isocitric acid in 100 mM potassium phosphate buffer, pH 7.4. After incubation times of 0, 3, 6, 9, 15 and 30 minutes at 37° C., 300 μL of cold acetonitrile (including internal standard) was added to 100 μL incubation mixture to terminate the reaction. Following precipitation and centrifugation, the amount of compound remaining in the samples were determined by LC-MS/MS. Controls of no NADPH regenerating system at zero and 30 minutes were also prepared and analyzed.

Clearance of Human microsome [mL/min/kg]	SMILES
7.72	Cc1cc(N2CCN(C[C@H]3CN(c4ccc(C#N)c5ncccc45)C[C@@H](C)O3)CC2)cc(CO)n1 [Example 50]
6.15	Cc1cc(N2CCC3(CN(C[C@H]4CN(c5ccc(C#N)c6ncccc56)C[C@@H](C)O4)C3)C2)cc(C)n1 [Example 9]
6.25	Cc1cc(N2CC[C@@H](NC[C@H]3CN(c4ccc(C#N)c5ncccc45)C[C@@H](C)O3)C2)cc(CO)n1 [Example 28]
7.21	Cc1cc(N2CC3(CN(C[C@H]4CN(c5ccc(C#N)c6ncccc56)C[C@@H](C)O4)C3)C2)cc(C(C)O)n1 (stereo partly drawn) [Example 44, 5-[(2S,6R)-2-[[2-[2-(1-hydroxyethyl)-6-methyl-4-pyridyl]-2,6-diazaspiro[3.3]heptan-6-yl]methyl]-6-methyl-morpholin-4-yl]quinoline-8-carbonitrile]
